Earlier results on 4 compounds are cited in patent publication US20190201418A1, “TREATMENT OF UTERINE FIBROIDS BY INTRAVAGINAL ADMINISTRATION OF A LOW DOSE OF SELECTIVE PROGESTERONE RECEPTOR MODULATOR (SPRM), ANTI-PROGESTIN, OR ANTI-PROGESTATIONAL AGENT” (ARSTAT, INC., priority 2011, published 2019).

One data set relates to liver enzymes. Particulars: oral.
Data set [1] has as its system endometrial lining of the uterus. Particulars: oral.
The subject of another data set is glucocorticoid blockade. Particulars: in vivo.
Data set [2] has as its system symptomatic uterine fibroids. Particulars: oral 5-mg and 10-mg tablets, Phase III.
Setting [3] is: oral mifepristone 10 mg/day or higher.

`COCC(=O)[C@@]1(OC(C)=O)CC[C@H]2[C@@H]3CCC4=CC(=O)CCC4=C3[C@@H](c3ccc(N(C)C)cc3)C[C@@]21C` [CDB-4124]: the “safety finding leading to suspension of the Phase III studies” value with liver enzymes is listed as “significant increases in liver enzymes”.
As to `COC[C@]1(OC)CC[C@H]2[C@@H]3CCC4=CC(=O)CCC4=C3[C@@H](c3ccc(/C=N/O)cc3)C[C@@]21C` [asoprisnil], the “safety finding leading to termination of the Phase III studies” value in data set [1] is given as “changes in the endometrial lining of the uterus that resulted in additional invasive procedures in some patients”.
`CC#C[C@]1(O)CC[C@H]2[C@@H]3CCC4=CC(=O)CCC4=C3[C@@H](c3ccc(N(C)C)cc3)C[C@@]21C` [mifepristone]: the “dose at which glucocorticoid blockade is reported” value with glucocorticoid blockade is ≥ 50 mg. Moreover, the “reduction of uterine volume and incidence of amenorrhea” value in the data set on uterine fibroids (oral mifepristone 2.5 mg/day) is “appreciably smaller reduction of uterine volume and a lower incidence of amenorrhea”. For the same compound, in the data set with uterine fibroids (oral mifepristone 5 mg), the “ability to reduce uterine volume and eliminate fibroid-related symptoms” value is reported as “limited”. Besides, in the data set on uterine fibroids (setting [3]), the “incidence of side effects (endometrial hyperplasia, hot flashes, elevated liver enzymes)” value is reported as “seems to be greater than desired”; the “reduction of uterine and fibroid volumes and related symptoms” value is “effective in the reduction of uterine and fibroid volumes and related symptoms”.
As to `CC(=O)O[C@]1(C(C)=O)CC[C@H]2[C@@H]3CCC4=CC(=O)CCC4=C3[C@@H](c3ccc(N(C)C)cc3)C[C@@]21C` [ulipristal acetate], in data set [2], the “efficacy and safety in the treatment of symptomatic uterine fibroids” value is “confirmed the efficacy and safety”.
